Molecules are shown by their SMILES. Where two headings read alike, the source gives them in different places.

The values below come from patent US20020081661A1 (Synaptic Pharmaceutical Corporation, priority 1992, published 2002).

Test [1] addresses T1, rat 5-HT4 (CG-8) receptor (Rattus norvegicus, UniProt Q62758).
T1 construct: two individual full length cDNA clones, S10-87 and S10-95, were isolated; expressed in transfected cells; host or cells: COS-7 (transient, DEAE-dextran)
Put plainly: cAMP formation in intact Cos-7 cells transiently expressing CG-8. Type of test: cell-based. The note with it: for agonist / antagonist character: CG-8, cAMP response; for I. A. (intrinsic activity): CG-8, maximum response normalized to 5-HT maximum = 1.0. The method, then:
(§1) Measurement of cAMP Formation: The transiently transfected Cos-7 cells were incubated in Dulbecco's modified Eagle's medium, 5 mM theophylline, 10 mM Hepes (4-[2-Hydroxyethyl]-1-piperazineethanesulfonic acid), 10 μM pargyline, and/or appropriate concentrations of antagonists for 20 minutes at 37° C., 5% CO2. […] The media was aspirated and the reaction stopped by the addition of 100 mM HCl. The plates were stored at 4° C. for 15 minutes, centrifuged for 5 minutes, 500×g to pellet cellular debris, and the supernatant aliquotted and stored at −20° C. prior to assessment of cAMP formation by radioimmunoassay (cAMP Radioimmunoassay kit, Advanced Magnetics, Cambridge, Mass.). Radioactivity was quantitated using a Packard COBRA Auto Gamma Counter equipped with data reduction software. Functional data was fitted to a four parameter logistic equation to obtain response parameters (EC50, Emax, nH; Inplot, GraphPad, San Diego, Calif.).
(In general: Cyclic AMP is a second messenger, typically raised through Gs and lowered through Gi signalling.)

For test [2], the target named is T2, rat 5-HT4 receptor S10-87 (CG-7) (Rattus norvegicus, UniProt Q62758). The experiment in a line: [3H]GR113808 binding (saturation and displacement), COS-7 membranes, rat clone CG-7. Set-up: two individual full length cDNA clones, S10-87 and S10-95, were isolated; expressed in transfected cells; host or cells: COS-7 (transient, DEAE-dextran).
Experimental: (§2) Membrane Preparation: Membranes were prepared from transiently transfected COS-7 cells which were grown to 100% confluence. The cells were washed twice with phosphate-buffered saline, scraped from the culture dishes into 5 ml of ice-cold phosphate-buffered saline, and centrifuged at 200×g for 5 min at 4′. The pellet was resuspended in 2.5 ml of ice-cold Tris buffer (20 mM Tris -HCl, pH 7.4 at 23°, 5 mM EDTA), and homogenized by a Wheaton tissue grinder. The lysate was subsequently centrifuged at 200×g for 5 min at 4° to pellet large fragments which were discarded. The supernatant was collected and centrifuged at 40,000×g for 20 min at 4°. The pellet resulting from this centrifugation was washed once in ice-cold Tris wash buffer and finally resuspended in a final buffer containing 50 mM Tris-HCl and 0.5 mM EDTA, pH 7.4 at 23°. Membrane preparations were kept on ice and utilized within two hr for the radioligand binding assays.
(§3) The binding profile of drugs in competition experiments was established using 10-12 concentrations of compound. Incubation times were 30 min for both saturation and displacement studies.
For test [3], the target named is T2, rat 5-HT4 receptor S10-87 (CG-7). Put plainly: [3H]5-HT radioligand binding (saturation and displacement), membranes of Cos-7 cells transiently expressing rat S10-87 (CG-7).
Experimental: as §2
(§4) The binding profile of drugs in competition experiments was established using 7 concentrations of compound. Incubation times were 30 min for both saturation and displacement studies. […] Binding was initiated by the addition of 50 μl membrane homogenates (10-20 μg). The reaction was terminated by rapid filtration through presoaked (0.5% polyethyleneimine) filters using 48R Cell Brandel Harvester (Gaithersburg, Md.). Subsequently, filters were washed for 5 sec with ice cold buffer (50 mM Tris HCL, pH 7.4 at 4° C.), dried and placed into vials containing 2.5 ml of Readi-Safe (Beckman, Fullerton, Calif.), and radioactivity was measured using a Beckman LS 6500C liquid scintillation counter. […] Binding data were analyzed by computer-assisted nonlinear regression analysis (Accufit and Accucomp, Lundon Software, Chagrin Falls, Ohio).
Test [4] has as its target T3, rat 5-HT4 receptor S10-95 (CG-8) (Rattus norvegicus, UniProt Q62758).
Experimental: (§5) For transient expression, Cos-7 cells were transfected by the DEAE-Dextran method, using 1 μg of DNA /10^6 cells (Warden, D. and H. V. Thorne, 1968).
(§6) Membrane Preparation: Membranes were prepared from transiently transfected COS-7 cells which were grown to 100% confluence. The cells were washed twice with phosphate-buffered saline, scraped from the culture dishes into 5 ml of ice-cold phosphate-buffered saline, and centrifuged at 200×g for 5 min at 4′. The pellet was resuspended in 2.5 ml of ice-cold Tris buffer (20 mM Tris -HCl, pH 7.4 at 23°, 5 mM EDTA), and homogenized by a Wheaton tissue grinder. The lysate was subsequently centrifuged at 200×g for 5 min at 4° to pellet large fragments which were discarded. The supernatant was collected and centrifuged at 40,000×g for 20 min at 4°. The pellet resulting from this centrifugation was washed once in ice-cold Tris wash buffer and finally resuspended in a final buffer containing 50 mM Tris-HCl and 0.5 mM EDTA, pH 7.4 at 23°. Membrane preparations were kept on ice and utilized within two hr for the radioligand binding assays. Protein concentrations were determined by the method of Bradford (1976) using bovine serum albumin as the standard.
(§7) The binding profile of drugs in competition experiments was established using 7 concentrations of compound. Incubation times were 30 min for both saturation and displacement studies. […] Binding was initiated by the addition of 50 μl membrane homogenates (10-20 μg). The reaction was terminated by rapid filtration through presoaked (0.5% polyethyleneimine) filters using 48R Cell Brandel Harvester (Gaithersburg, Md.). Subsequently, filters were washed for 5 sec with ice cold buffer (50 mM Tris HCL, pH 7.4 at 4° C.), dried and placed into vials containing 2.5 ml of Readi-Safe (Beckman, Fullerton, Calif.), and radioactivity was measured using a Beckman LS 6500C liquid scintillation counter. […] Binding data were analyzed by computer-assisted nonlinear regression analysis (Accufit and Accucomp, Lundon Software, Chagrin Falls, Ohio). […]
Test [5] addresses T3, rat 5-HT4 receptor S10-95 (CG-8). The experiment in a line: [3H]5-HT radioligand binding (displacement), membranes of Cos-7 cells transiently expressing rat S10-95 (CG-8). Conditions: read-out: K1; CG-8, binding data using [3H]5-HT, Table 4.
Experimental: as §5, §6, §7
The target in test [6] is T4, human 5-HT4 receptor S10-95 (CG-17) (Homo sapiens, UniProt Q13639).
T4 construct: Isolation of the full length human S10-95 cDNA clone; expressed in transfected cells; host or cells: COS-7 (transient, DEAE-dextran)
Put plainly: [3H]5-HT displacement binding, human CG-17 clone.
Experimental: as §2, §4

For test [7], the target named is T5, rat 5-HT4 (CG-7) receptor (Rattus norvegicus, UniProt Q62758).
T5 construct: two individual full length cDNA clones, S10-87 and S10-95, were isolated; expressed in transfected cells; host or cells: COS-7 (transient, DEAE-dextran)
Put plainly: cAMP formation in intact Cos-7 cells transiently expressing CG-7. It counts as cell-based. The note with it: for agonist / antagonist character: CG-7, cAMP response; for I. A. (intrinsic activity): CG-7, maximum response normalized to 5-HT maximum = 1.0. Here is the method: as §1

Test [8] addresses T3, rat 5-HT4 receptor S10-95 (CG-8). Put plainly: [3H]GR113808 binding (saturation and displacement), COS-7 membranes, rat clone CG-8. Set-up: two individual full length cDNA clones, S10-87 and S10-95, were isolated; expressed in transfected cells; host or cells: COS-7 (transient, DEAE-dextran). The note with it: for Ki: CG-8, 0.2-0.4 nM [3H]GR113808, single experiment, read-out: Affinity estimate K1.
Experimental: as §2, §3

Test [9] has the same target. The experiment in a line: biochemical.
Experimental: as §5, §6, §7
[10] abbreviates: K1 (nM), CG-7, binding data using [3H]5-HT, Table 4.
The mark [11] stands for this setting: read-out: Ks (apparent dissociation constant of antagonist).

T2 sequence (Q62758 1-387 isoform Q62758-2): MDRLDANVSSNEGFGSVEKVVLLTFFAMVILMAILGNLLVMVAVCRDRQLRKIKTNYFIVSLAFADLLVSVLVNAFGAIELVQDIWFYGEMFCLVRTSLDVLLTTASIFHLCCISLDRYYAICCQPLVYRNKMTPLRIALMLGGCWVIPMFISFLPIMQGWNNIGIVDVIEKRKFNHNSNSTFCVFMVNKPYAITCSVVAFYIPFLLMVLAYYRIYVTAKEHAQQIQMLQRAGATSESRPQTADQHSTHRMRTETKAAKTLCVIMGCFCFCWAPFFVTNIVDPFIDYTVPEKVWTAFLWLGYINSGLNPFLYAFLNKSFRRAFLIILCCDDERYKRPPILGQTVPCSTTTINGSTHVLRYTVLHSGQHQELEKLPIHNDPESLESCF
T5 sequence (Q62758 1-387 isoform Q62758-2): as above
T3 sequence (Q62758 whole entry): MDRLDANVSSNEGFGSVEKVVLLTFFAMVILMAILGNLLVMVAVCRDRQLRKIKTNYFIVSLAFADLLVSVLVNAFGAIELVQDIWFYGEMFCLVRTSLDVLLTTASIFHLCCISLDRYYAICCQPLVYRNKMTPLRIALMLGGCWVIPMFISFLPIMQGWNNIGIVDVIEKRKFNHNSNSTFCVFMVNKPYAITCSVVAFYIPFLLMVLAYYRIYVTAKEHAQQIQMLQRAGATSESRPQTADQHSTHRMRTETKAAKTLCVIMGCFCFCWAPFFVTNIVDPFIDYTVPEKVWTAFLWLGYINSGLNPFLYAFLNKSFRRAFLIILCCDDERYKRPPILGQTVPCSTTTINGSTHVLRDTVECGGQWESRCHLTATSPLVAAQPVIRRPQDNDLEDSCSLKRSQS
T1 sequence (Q62758 whole entry): as above
T4 sequence (Q13639 whole entry): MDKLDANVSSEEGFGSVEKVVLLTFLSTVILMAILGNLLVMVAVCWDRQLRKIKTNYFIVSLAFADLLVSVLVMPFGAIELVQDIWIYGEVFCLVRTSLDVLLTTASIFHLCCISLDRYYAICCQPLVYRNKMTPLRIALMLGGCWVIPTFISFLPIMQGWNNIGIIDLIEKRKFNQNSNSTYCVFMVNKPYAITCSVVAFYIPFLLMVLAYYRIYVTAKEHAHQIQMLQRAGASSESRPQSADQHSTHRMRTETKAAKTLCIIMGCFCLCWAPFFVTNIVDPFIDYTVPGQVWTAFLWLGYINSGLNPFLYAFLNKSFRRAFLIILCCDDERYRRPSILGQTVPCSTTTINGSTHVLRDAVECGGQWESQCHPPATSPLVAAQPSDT

Usually EC50 stands for the concentration that produces a half-maximal response. Take `COc1cc(N)c(Cl)cc1C(=O)NC1CN2CCC1CC2` (stereo not drawn) [Zacopride, zacopride]: the “agonist / antagonist character” value in test [1] and in test [7] was “partial agonists” in each case. Besides, the “I. A. (intrinsic activity)” value in [1] was found to be 1.0; in test [7], 1.1. Further, the EC50 in test [1] (CG-8, stimulation of basal cAMP release, means ± S.E.M. of three experiments, read-out: EC50) stood at 239 ± 33 nM; in [7] (CG-7, stimulation of basal cAMP release, means ± S.E.M. of three experiments, read-out: EC50), 2740 nM. Moreover, the Ki in test [2] (CG-7, 0.2-0.4 nM [3H]GR113808, single experiment, read-out: Affinity estimate K1) is 729 nM; in test [2] (CG-7, [3H]GR113808, read-out: KH (affinity for the high affinity state)), 424 nM; in [2] (CG-7, [3H]GR113808, read-out: KL (affinity for the low affinity state)), 2760 nM; in [3], 130 ± 10 nM; in [3] (setting [10]), 130 ± 10 nM; in test [4], 136 ± 5 nM. Besides, the figures for the Ki in [5], in [6] (read-out: Ki) and in test [8] were 136 ± 5 nM, 17 nM and 820 nM, respectively. Besides, the “BH (percentage of high affinity sites)” value in test [2] (CG-7, [3H]GR113808) was found to be 68%. Also, the “nH (Hill coefficient)” value in test [2] (CG-7, [3H]GR113808) is recorded as “nH = 0.80”; in test [8] (CG-8, [3H]GR113808) it was “nH = 0.85”. Besides, the “fold higher affinity for the human CG-17 clone” value in [6] (human CG-17 compared with rat clones) was “about 7 fold”. Besides, the “fold lower affinity than cisapride” value in test [7] (CG-7, stimulation of adenylate cyclase) is given as about 15 fold. In test [7] (CG-7, stimulation of basal cAMP release), the “times less potent than 5-HT” value was about 100 fold.

`CN1[C@@H]2CC[C@H]1C[C@@H](OC(=O)c1c[nH]c3ccccc13)C2` [ICS 205930]: the “fold lower affinity in the functional assay as compared to the binding experiments” value is on record as “approximately 6 fold” in [1] (CG-8) and about 10 fold in [7] (CG-7). In addition, the “agonist / antagonist character” value in test [1] and in [7] was “silent antagonist” in each case. The “I. A. (intrinsic activity)” value in test [1] and in test [7] was 0 in each case. Further, the Kd in test [1] (setting [11]) came to 607 ± 30 nM; in test [7] (setting [11]), 962 ± 244 nM. Besides, the Ki in test [3] (Affinity constants (Ki), CG-7, 10 nM [3H]5-HT, mean ± SEM, >1000 estimated from one point displacement at 1 uM) is 115 ± 12 nM; in test [3] (setting [10]) it was 115 ± 12 nM; in [9], 138 ± 26 nM; in test [8] it was 529 nM.
